Measurements reported in patent US7270820B2, “CD4+ T-lymphocyte-specific hepatitis C virus epitopes” (Immusystems GmbH, priority 2002, dated 2007).

tested on: fresh peripheral blood mononuclear cells (PBMC) / HCV-specific CD4+ T-lymphocytes; test: Lymphocyte proliferation assay (3H-thymidine incorporation) of PBMC stimulated with HCV peptides; type: cell-based, human (patients with acute hepatitis C); conditions: of 16 independent tests
Source text: To solve the task, a unique patient collective was identified, namely patients with acute hepatitis C who reach a lasting or at least temporary virus elimination in over 50% of cases. In order to test all possible CD4+ T-cell epitopes, the whole virus was covered with overlapping synthetic peptides from 15 to 20 amino acids long. A standardised lymphocyte proliferation assay was used as the test system. In order to determine both the degree of conservation between various virus sub-types and also the binding promiscuity as regards the relevant genetic background of the patients, a formula was defined based on the frequency of detection of an epitope and the strength of the immune reaction in question.
The stimulation index (SI) is normally calculated from the raw data of a proliferation assay and represents the multiplication factor of the measured sample in comparison with the control. An SI of 3 is regarded as significant.
A special patient collective was chosen and examined for HCV specific CD4+ T-cell epitopes relevant for the healing of the disease. The patient collective, namely patients with acute hepatitis C, is difficult to identify, since, on the one hand, they occur with a frequency of approx. 1:100,000 in the German population and, on the other hand, only T-lymphocytes were tested in the acute phase of the disease. This means a considerable limitation in the number of usable samples. Finally, within this patient collective, only patients were considered who were able to clear the virus spontaneously or to control it temporarily (this is only approx. 60% of the patients with acute hepatitis C), since only here has the immune system successfully taken action against the virus.
As the test system, the so-called “proliferation assay” was carried out according to the following protocol: After density gradient centrifugation on Ficoll gradients of heparinised blood, the fresh peripheral blood mononuclear cells (PBMC) were isolated and suspended in a culture medium (RPMI1640, Gibco). 50 μl of this cell suspension (concentration of 1×10^6 cells per ml) were placed on sterile 96-well culture plates. The cells were stimulated by the addition of the peptides. The final concentration of the peptides was 10 μg/ml. The cell culture plates were cultivated over 5 days at 37° C. and 5% CO2, then mixed with ^3H-thymidine and the incorporation of the radioactive ^3H was measured as a measure of the cell stimulation.
In our studies, only peptide reactions were regarded as significant whose stimulation index (SI) was greater than 3 (3× higher compared with the controls, or the irrelevant peptides).
The impact factor (IF) is based on a points system which not only uses the frequency of relevant reactions, i.e. stimulation index (SI) greater than 3, as normal, but also takes into account the strength of these reactions.
[formula] where • n1 is the sum of the reactions with 3<SI<6, • n2 is the sum of the reactions with SI≧6 and • m is the number of tests against the peptide in question, whereby m≧15.

Sequence	n1, sum of the reactions with 3<SI<6	n2, sum of the reactions with SI≧6
TITQLLKRLHQWINEDCSTP [EP007]	4	2

same assay, conditions: peptide 10 μg/ml, 5 days; calculated from n1 (reactions with 3<SI<6), n2 (SI≧6) and m tests, m≧15

Sequence	IF (impact factor)
ARSLTPCTCGSSDLY (Hepatitis C virus) [EP002]	27.6
CPCQVPAPEFFTEVDGVRLH [EP011]	23.3
CSGSWLRDVWDWICTVLTDF [EP008]	23.3
DVVCCSMSYTWTGALITPCA [EP017]	23.3
EVTRVGDFHYVTGMTTDNVK [EP010]	21.9
FTEVDGVRLHRYAPACKPLL [EP012]	28.1
GAQITGHVKNGSMRIVGPKT [EP009]	23.3
GPRLGVRATRKTSER (Hepatitis C virus) [EP001]	24.0
MWKCLIRLKPTLHGP (Hepatitis C virus) [EP004]	24.1
PLLESWKDPDYVPPVVHGCP [EP016]	26.7
REVSVAAEILRKSRKFPPAM (Hepatitis C virus) [EP015]	25.0
SSDLYLVTRHADVIP (Hepatitis C virus) [EP003]	23.2
SSSASQLSAPSLKATCTTHH [EP014]	23.3
THYVPESDAAARVTQILSSL [EP006]	26.7
TITQLLKRLHQWINEDCSTP [EP007]	43.8
TSMLTDPSHITAETAKRRLA [EP013]	26.7
VLVDILAGYGAGVAG (Hepatitis C virus) [EP005]	24.1

same assay, conditions: worked example in text, m=16 tests

Sequence	impact factor
TITQLLKRLHQWINEDCSTP [EP007]	43.75
